For series [1], the target named is T1, OATP1B1*1b (Homo sapiens, UniProt Q9Y6L6, N130D).
T1 construct: expressed in transfected cells
T1 sequence (Q9Y6L6 1-691 N130D): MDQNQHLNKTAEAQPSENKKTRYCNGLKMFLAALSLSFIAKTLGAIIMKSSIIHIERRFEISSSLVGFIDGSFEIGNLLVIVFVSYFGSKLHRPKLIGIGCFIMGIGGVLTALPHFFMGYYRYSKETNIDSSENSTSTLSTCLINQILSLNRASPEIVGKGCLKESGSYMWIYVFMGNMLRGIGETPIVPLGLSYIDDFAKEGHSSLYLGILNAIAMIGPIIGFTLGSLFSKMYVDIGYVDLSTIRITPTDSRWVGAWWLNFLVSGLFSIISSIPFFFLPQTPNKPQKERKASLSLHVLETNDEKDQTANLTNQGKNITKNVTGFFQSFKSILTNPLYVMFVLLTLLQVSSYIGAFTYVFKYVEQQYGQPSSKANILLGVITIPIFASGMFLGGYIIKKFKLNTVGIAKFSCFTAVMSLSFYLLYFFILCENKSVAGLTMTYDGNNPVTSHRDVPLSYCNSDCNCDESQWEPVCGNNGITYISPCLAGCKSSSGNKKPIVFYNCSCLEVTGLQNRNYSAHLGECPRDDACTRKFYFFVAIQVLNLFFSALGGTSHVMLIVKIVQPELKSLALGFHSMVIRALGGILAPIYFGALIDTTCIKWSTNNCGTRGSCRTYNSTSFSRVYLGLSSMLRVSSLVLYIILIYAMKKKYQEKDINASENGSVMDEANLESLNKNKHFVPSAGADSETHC
The experiment in a line: Remdesivir uptake into HEK cells stably expressing OATP1B1*1b vs vector control. The conditions noted are these: 10 min. It counts as in vitro ADME. The text has this:
(§1) Generation, cultivation and characterization of human embryonic kidney (HEK) cells stably expressing OATP1B1 refseq (=OATP1B1*1a), OATP1B1*1b, OATP1B1*5 and OATP1B1*15 [18], OATP1B3 [19], OATP2B1 [13] and OCT1 [20] have been described previously. OATP1B1 cells were cultivated in minimal essential medium (Life Technologies, Paisley, UK) and OATP1B3, OATP2B1 and OCT1 cells were cultivated in Dulbecco’s modified Eagle medium (Sigma, Darmstadt, Germany). Cultivation media were supplemented with 10% fetal calf serum, 100 U/mL penicillin and 100 µg/mL streptomycin. Cells were grown at 37 °C and 5% CO2. Functionality of the cells was confirmed by measuring uptake of prototypic substrates (see Section 2.3 and supplementary material).
(§2) Uptake assays were conducted at 37 °C according to previously described methods. For this, cells were seeded in 24-well plates (320,000 cells/well) and cultured for 2 days. Cells were then incubated for a further 24 h in culture medium with 5 mM butyrate (OATP1B3, OATP2B1, OCT1) or 10 mM butyrate (OATP1B1) to increase protein levels of recombinant transporters. […]
(§3) Remdesivir was determined by UHPLC-MS-MS analysis on an Agilent 1290 infinity UHPLC system coupled to an Agilent 6495B triple quadrupole mass spectrometer (Agilent, Waldbronn, Germany) similar to a recently published method. […]

The test system of series [2] is vector-transfected control cells. The experiment in a line: Remdesivir accumulation into vector-transfected control HEK cells. The class given is in vitro ADME, human. As to conditions: 5 µM remdesivir, 10 min.
Source text: as §1, §2, §3

Molecules are shown by their SMILES.

We go through one compound from PMC7999182, “Interaction of Remdesivir with Clinically Relevant Hepatic Drug Uptake Transporters” (Pharmaceutics, 2021).

For `CCC(CC)COC(=O)[C@H](C)N[P@](=O)(OC[C@H]1O[C@@](C#N)(c2ccc3c(N)ncnn23)[C@H](O)[C@@H]1O)Oc1ccccc1` [Remdesivir], the “Accumulation vs vector-transfected control cells” value in series [1] (5 µM remdesivir) and in series [1] (50 µM remdesivir) was “moderately higher” throughout. Moreover, the “Accumulation into control cells” value in series [2] is recorded as “high remdesivir accumulation”.
